# Measured values: patent publication US20120196801A1, “Wound-healing, anti-ambustial, regenerating, and anti-viral pharmaceutical formula for local administration” (priority 2011, published 2012)
# Tested on: endogenous interferon
# Set-up: species or system non-linear white mice
# Details: mouse, in vivo, ip
substance,measurement,value
Poly I:C,Minimum Dose Inducing Interferon,5 µg/mL
same,Titer of ME Interferons,1638 ME
